Experimental data as given in patent publication US20250140406A1, “CLASSIFYING TUMORS AND PREDICTING RESPONSIVENESS” (Oncocyte Corporation, priority 2022, published 2025).

Key:
[1] = system: cancer cell lines classified IM, MSL, M; experiment: PRISM screen compound sensitivity correlated with IM, MSL and M subtype of cell lines (101 gene signature); format: cell-based; details: for IM Corr test: correlation of PRISM compound sensitivity with IM subtype correlation; for M Corr test: correlation of PRISM compound sensitivity with M subtype correlation; for MSL Corr test: correlation of PRISM compound sensitivity with MSL subtype correlation; for TNBCType test: test data set
[2] = system: cancer cell lines, DetermaIO classes; experiment: Association of PRISM compound sensitivity with DetermaIO (DTIO) cell line classes; format: cell-based
[3] = correlation of PRISM compound sensitivity with DTIO (DetermaIO), test cell set (188 cell lines)
[4] = correlation of PRISM compound sensitivity with DTIO (DetermaIO), training cell set (371 cell lines)
[5] = subtype (IM, MSL or M) assigned to the compound by negative correlation of PRISM sensitivity with subtype, training cell set (371 cell lines), 101 gene signature
[6] = correlation of PRISM compound sensitivity with DTIO, test cell set
[7] = correlation of PRISM compound sensitivity with DTIO, training cell set
[8] = correlation of PRISM compound sensitivity with DTIO, test cell set (188 cell lines)
[9] = correlation of PRISM compound sensitivity with DTIO, training cell set (371 cell lines)
[10] = classification of association of compound sensitivity with IM, MSL and M cell line classes, training data set
[11] = association of compound sensitivity with DetermaIO classes, test data set
[12] = association of compound sensitivity with DetermaIO classes, training data set
[13] = classification of association of compound sensitivity with IM, MSL and M cell line classes

Structure (SMILES) | IM Corr test ([1]; test cell set (188 cell lines)) | M Corr test ([1]; test cell set (188 cell lines)) | MSL Corr test ([1]; test cell set (188 cell lines)) | DTIO Corr test [2, 6] | DTIO Corr train [2, 7] | DTIO Corr test [2, 11] | DTIO Corr train [2, 12] | also measured
Nc1nc(-c2ccc(Cl)c(Cl)c2)c(-c2ccncc2)s1 [CGH2466] | −0.07415 | 0.03776 | 0.04331 |  |  |  |  | DTIO Corr test [2, 3]: −0.01803; DTIO Corr train [2, 4]: −0.09319
CCCCCCCCCCC(C)(C)C(=O)Nc1c(OC)cc(OC)cc1OC [CI-976] | 0.06082 | −0.082 | −0.03363 |  |  |  |  | TNBCType train [1, 5]: MSL; DTIO Corr test [2, 3]: 0.03532; DTIO Corr train [2, 4]: 0.09198
C=CC(=O)Nc1cccc(Nc2nc(Nc3ccc(Oc4ccnc(C(=O)NC)c4)cc3)ncc2F)c1 [CNX-774] |  |  |  | 0.1389 | 0.07802 |  |  | IM Corr test ([1]; test cell set): 0.09358; M Corr test ([1]; test cell set): −0.09506; MSL Corr test ([1]; test cell set): 0.02463
O=C(O)C1CN(CCCP(=O)(O)O)CCN1 (centres unmarked) [CPP] | −0.04467 | −0.01154 | −0.2411 |  |  |  |  | TNBCType train [1, 5]: MSL; DTIO Corr test [2, 3]: −0.04842; DTIO Corr train [2, 4]: −0.04563
CCn1c(=O)[nH]c2cc(Cl)c(Cl)cc21 [DCEBIO] | 0.1207 | −0.1198 | −0.1352 |  |  |  |  | DTIO Corr test [2, 3]: 0.121; DTIO Corr train [2, 4]: 0.1577
CC(=O)Nc1ccc(Cc2ccc(NC(C)=O)cc2)cc1 [FH1] |  |  |  | −0.06073 | −0.08253 |  |  | IM Corr test ([1]; test cell set): −0.11; M Corr test ([1]; test cell set): 0.01237; MSL Corr test ([1]; test cell set): −0.1426
NC(=O)c1cccc(-c2cc(Nc3ccc(OC(F)(F)F)cc3)ncn2)c1 [GNF-2] | −0.03304 | −0.07177 | −0.05938 |  |  |  |  | DTIO Corr test [2, 8]: −0.02831; DTIO Corr train [2, 9]: −0.02935
CCCCC#Cc1nc(NC)c2ncn([C@@H]3O[C@H](CO)[C@@H](O)[C@H]3O)c2n1 [HEMADO] |  |  |  | −0.09381 | −0.08651 |  |  | IM Corr test ([1]; test cell set): −0.0662; M Corr test ([1]; test cell set): 0.05737; MSL Corr test ([1]; test cell set): 0.1849
O=C1[C@H](Cc2ccc(O)cc2)N2C(=O)CCN(C(=O)NCc3ccccc3)[C@H]2CN1Cc1cccc2ccccc12 [ICG-001] | 0.1415 | −0.2223 | 0.01929 |  |  |  |  | DTIO Corr test [2, 8]: 0.1635; DTIO Corr train [2, 9]: 0.1783; DTIO Corr test ([2]; correlation of compound sensitivity with DTIO, test set): 0.1635; DTIO Corr train ([2]; correlation of compound sensitivity with DTIO, training set): 0.1783
O=C(O)CCC/C=C\C[C@@H]1CO[C@H](C(F)(F)F)O[C@@H]1c1ccccc1O [ICI-185,282] |  |  |  | −0.02205 | −0.09302 |  |  | IM Corr test ([1]; test cell set): −0.05673; M Corr test ([1]; test cell set): 0.07129; MSL Corr test ([1]; test cell set): 0.1418
NC(=O)CCCCn1ccc(NC(N)=NCC(F)(F)F)n1 [ICI-162846] | −0.1537 | 0.1647 | 0.0517 | −0.05711 | −0.09255 |  |  | 
O=C(O)CNC(=O)c1c(O)c2ccccc2n(Cc2ccccc2)c1=O [IOX2] | −0.04037 | 0.09066 | 0.01906 |  |  |  |  | DTIO Corr test [2, 8]: −0.06501; DTIO Corr train [2, 9]: −0.0409
Cc1cc(C)cc(C(=O)N(C)[C@H](Cc2ccc(-c3ccccc3)cc2)C(=O)N[C@@H](Cc2c[nH]c3ccccc23)C(=O)O)c1 [IRL-2500] | −0.01191 | 0.007861 | −0.1214 |  |  |  |  | DTIO Corr test [2, 8]: 0.02691; DTIO Corr train [2, 9]: −0.06473
O=C(Nc1ccc(C(F)(F)F)cn1)N1CCN(c2ncccc2C(F)(F)F)CC1 [JNJ-17203212] |  |  |  | −0.00666 | −0.1037 |  |  | IM Corr test ([1]; test cell set): −0.03139; M Corr test ([1]; test cell set): 0.03655; MSL Corr test ([1]; test cell set): 0.142
CCCCCOc1c(OC)ccc2cc(C(=O)NCc3ccc4c(c3)OCO4)c(=O)[nH]c12 [JTE-907] | −0.05167 | 0.08725 | −0.01924 |  |  |  |  | DTIO Corr test [2, 3]: −0.04389; DTIO Corr train [2, 4]: −0.131
Clc1ccc(C2(c3ccc(-c4cn[nH]c4)cc3)CCNCC2)cc1 [K12040459] |  |  |  |  |  | 0.003574 | 0.04812 | TNBCType train [1, 10]: MSL
C[C@@H]1NC(C)(C)CO[C@@]1(O)c1cccc(Cl)c1 [K13394247] |  |  |  |  |  | −0.04236 | 0.0598 | TNBCType test [1, 13]: MSL
C[C@@H](Oc1ccc2[nH]nc(/C=C/c3cnn(CCO)c3)c2c1)c1c(Cl)cncc1Cl [K17203476] |  |  |  |  |  | −0.0838 | −0.1449 | TNBCType test [1, 13]: MSL

Structure (SMILES) | IM Corr test ([1]; test cell set (188 cell lines)) | M Corr test ([1]; test cell set (188 cell lines)) | MSL Corr test ([1]; test cell set (188 cell lines)) | DTIO Corr test [2, 6] | DTIO Corr train [2, 7] | DTIO Corr test [2, 11] | DTIO Corr train [2, 12] | also measured
O=C(NCc1cccc(O)c1)Nc1nc(-c2ccncc2)cs1 [K19333160] |  |  |  |  |  | 0.08122 | 0.04633 | TNBCType test [1, 13]: MSL; TNBCType train [1, 10]: MSL
COc1cc(Nc2ncc(F)c(Nc3ccc4c(n3)NC(=O)C(C)(C)O4)n2)cc(OC)c1OC [K20285085] |  |  |  |  |  | −0.04153 | −0.1076 | TNBCType test [1, 13]: MSL; TNBCType train [1, 10]: MSL
COc1cc(-c2ccc(=O)[nH]n2)ccc1OC(F)F [K37561857] |  |  |  |  |  | 0.1699 | 0.1782 | TNBCType test [1, 13]: MSL
COc1cc2nccc(Oc3ccc(NC(=O)NC4CC4)c(Cl)c3)c2cc1C(N)=O [K39974922] |  |  |  |  |  | 0.002695 | −0.03256 | TNBCType train [1, 10]: MSL
Nc1cc(F)ccc1NC(=O)/C=C/c1cnn(C/C=C/c2ccccc2)c1 [K61688984] |  |  |  |  |  | −0.02541 | 0.06912 | TNBCType train [1, 10]: MSL
O=C(O)C[C@H](O)C[C@H](O)/C=C/c1c(C2CC2)nc2ccccc2c1-c1ccc(F)cc1 [K75958547] |  |  |  |  |  | −0.0837 | −0.04476 | TNBCType train [1, 10]: MSL
COc1cc(OC)cc(N(CCNC(C)C)c2ccc3ncc(-c4cnn(C)c4)nc3c2)c1 [K84868168] |  |  |  |  |  | 0.006092 | −0.0744 | TNBCType train [1, 10]: MSL
CC[C@H](C)C(=O)O[C@H]1CCC=C2C=C[C@H](C)[C@H](CC[C@@H]3C[C@@H](O)CC(=O)O3)[C@H]21 [K94441233] |  |  |  |  |  | −0.09323 | −0.00119 | TNBCType test [1, 13]: MSL; TNBCType train [1, 10]: MSL
COc1cc2nccc(Oc3ccc(NC(=O)Nc4ccc(F)cc4F)c(F)c3)c2cc1OC [KI-8751] |  |  |  | 0.03732 | 0.02512 |  |  | IM Corr test ([1]; test cell set): 0.1039; M Corr test ([1]; test cell set): −0.09761; MSL Corr test ([1]; test cell set): 0.006054
COc1ccc(/C=C/CCCCOc2ccc(C(=O)c3cccc(C(=O)O)c3)cc2CCC(=O)O)cc1 [LY223982] |  |  |  | −0.04973 | 0.000351 |  |  | IM Corr test ([1]; test cell set): 0.01323; M Corr test ([1]; test cell set): 0.005739; MSL Corr test ([1]; test cell set): −0.01914; TNBCType train ([1]; subtype (IM, MSL or M) with which PRISM compound sensitivity is negatively correlated, training cell set, 101 gene signature): MSL
O=C1NC(=O)C(c2cnc3ccccn23)=C1c1cn2c3c(cc(F)cc13)CN(C(=O)N1CCCCC1)CC2 [LY2090314] | −0.01913 | 0.0417 | −0.00714 |  |  |  |  | TNBCType train [1, 5]: MSL; DTIO Corr test [2, 3]: 0.003829; DTIO Corr train [2, 4]: −0.08353
C[C@@H](Oc1ccc2[nH]nc(/C=C/c3cnn(CCO)c3)c2c1)c1c(Cl)cncc1Cl [LY2874455] | −0.01933 | −0.0758 | −0.1021 | −0.0838 | −0.1449 |  |  | 
CN(C)C(=O)CCSC(SCCC(=O)O)c1cccc(/C=C/c2ccc3ccc(Cl)cc3n2)c1 (centres unmarked) [MK-571] | −0.02535 | −0.02967 | −0.00401 | −0.00581 | 0.02432 |  |  | TNBCType train ([1]; subtype (IM, MSL or M) with which compound sensitivity is negatively correlated, training cell set (371 cell lines), 101 gene signature): MSL
C=CCn1c(=O)c2cnc(Nc3ccc(N4CCN(C)CC4)cc3)nc2n1-c1cccc(C(C)(C)O)n1 [MK-1775] |  |  |  | −0.1537 | −0.09981 |  |  | IM Corr test ([1]; test cell set): −0.1878; M Corr test ([1]; test cell set): 0.1655; MSL Corr test ([1]; test cell set): 0.1175
CN(C[C@@H]1COCCO1)S(=O)(=O)Nc1ccc2ccc3ncc(-c4cnn(C)c4)cc3c(=O)c2c1 [MK-2461] | 0.05424 | −0.1288 | −0.01237 |  |  |  |  | TNBCType train [1, 5]: MSL; DTIO Corr test [2, 3]: −0.00757; DTIO Corr train [2, 4]: −0.03035
Cc1ccc(CNc2ncnc3ccc(-c4ccc(CO)o4)cc23)o1 [ML167] | −0.07672 | 0.05836 | 0.01781 |  |  |  |  | DTIO Corr test [2, 3]: −0.03284; DTIO Corr train [2, 4]: −0.07536
COc1ccccc1N1CCN(CCCCN2C(=O)CCC2=O)CC1 [MM77] |  |  |  | −0.06165 | −0.1241 |  |  | IM Corr test ([1]; test cell set): −0.07111; M Corr test ([1]; test cell set): 0.07806; MSL Corr test ([1]; test cell set): 0.009431
